Paper PMC12610274, “Identification of Marrubiin as a Cathepsin C Inhibitor for Treating Rheumatoid Arthritis” (Molecules, 2025)

Tests used:
[1] = Cytotoxicity assay, U937 cell line; assay type: cell-based; settings: human, U937 cells
Protocol: (§1) RAW264.7 cells and U937 cells in the logarithmic growth phase were counted and diluted, and the concentrations of the single-cell suspensions of the two types of cells were adjusted to 5 × 10^4 cells/mL and 3 × 10^4 cells/mL, respectively. After thorough mixing, the cells were seeded into a 96-well plate, with 100 μL of cell suspension added to each well. Prepare the working solution of test compounds using the corresponding medium as the solvent, with the concentration of working solution being 2 times the final test concentration (2.5 μM, 5 μM, 10 μM, 20 μM, and 40 μM). Twenty-four hours after cell seeding, the compound working solutions were added to the compound test wells, and the same volume of medium was added to the negative control wells, followed by continuous incubation for another 24 h. Only the wells with the same volume but without cells served as the blank control group. The CellTiter-Lumi™ luminescent cell viability assay kit (Beyotime Biotechnology, Shanghai, China, C0065XL) was used to detect cell viability according to the standard operating procedures. Each group of tests was independently repeated at least 3 times, and IC50 values were calculated using SPSS 10.0.

[2] = Cytotoxicity assay, RAW264.7 cell line; assay type: cell-based; settings: mouse, RAW264.7 cells
Protocol: as §1

[3] = test system: NE; assay: NSPs activity in U937 cells after 5 days of treatment, NE; assay type: cell-based, human; settings: U937, 10 μM
Protocol: (§2) U937 cells in the logarithmic growth phase were collected and equally divided into six portions. Four of these portions were treated with DMSO solutions of the test compound at varying concentrations to achieve final concentrations of 1.25, 2.5, 5, and 10 μM, respectively. An equal volume of DMSO was added to one portion as a blank control, while another portion treated with a DMSO solution of AZD7986 served as a positive control. The cells were cultured under standard U937 conditions for 5 consecutive days, with daily medium changes and fresh compound treatments administered using the same protocol. Following 5 days of treatment, cells were harvested, washed twice thoroughly with phosphate-buffered saline, and lysed in phosphate-buffered saline containing 1% Triton X-100. The lysates were centrifuged to collect the supernatant, and protein concentrations were determined as previously described to ensure equal total protein loading across all samples. The prepared samples were stored at −20 °C until further analysis. Different assay buffers were prepared for diluting samples and measuring the activities of specific NSPs: a buffer containing 50 mM Tris and 750 mM NaCl (pH 7.4) was used for NE and PR3; a buffer containing 50 mM Tris, 750 mM NaCl, 5 mM EDTA (pH 7.4) was used for Cat G; and a buffer containing 25 mM MES, 50 mM NaCl, 5 mM DTT (pH 6.0) was used for CTSC. […]

[4] = test system: PR3; assay: NSPs activity in U937 cells after 5 days of treatment, PR3; assay type: cell-based, human; settings: U937, 10 μM
Protocol: as §2

[5] = test system: Cat G; assay: NSPs activity in U937 cells after 5 days of treatment, Cat G; assay type: cell-based, human; settings: U937, 10 μM
Protocol: as §2

[6] = target: T1, CTSC (Mus musculus, UniProt P97821); assay: CTSC activity in blood and bone marrow of mice; assay type: in vivo, C57BL/6 mice; settings: 30 mg/kg daily gavage, 7 days
T1 construct: from tissue; host or cells: mouse blood and bone marrow lysates
T1 sequence (P97821 25-462): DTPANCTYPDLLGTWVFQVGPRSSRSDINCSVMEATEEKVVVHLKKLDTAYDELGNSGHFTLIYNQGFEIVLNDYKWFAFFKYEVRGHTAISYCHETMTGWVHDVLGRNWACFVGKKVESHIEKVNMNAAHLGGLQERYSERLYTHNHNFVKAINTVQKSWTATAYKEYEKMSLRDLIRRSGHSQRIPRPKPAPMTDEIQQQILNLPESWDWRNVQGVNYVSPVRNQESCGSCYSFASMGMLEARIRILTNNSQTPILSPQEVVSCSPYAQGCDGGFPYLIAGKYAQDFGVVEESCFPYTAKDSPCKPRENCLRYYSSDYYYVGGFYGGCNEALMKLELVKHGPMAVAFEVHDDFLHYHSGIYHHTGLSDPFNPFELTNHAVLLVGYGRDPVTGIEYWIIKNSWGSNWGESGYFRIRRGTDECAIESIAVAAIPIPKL
Protocol: (§3) A total of 25 C57BL/6 mice (6–8 weeks old, weighing approximately 20 g, with equal numbers of males and females) were randomly divided into five groups. Mice in the compound-treated groups were orally administered the compound once daily at doses of 0.3, 3, and 30 mg/kg for 7 consecutive days. […] Mice in the normal group were given an equal volume of normal saline at the same time points. The body weight, death rate, and behavior were observed and recorded daily for one week. After 7 days, bone marrow and blood samples were collected from the mice and lysed using 8% Triton X-100 buffer. The lysates were stored at −20 °C until testing. The activity assays for CTSC and NSPs were performed as described above. The mice were anesthetized and the tissues were taken for H&E staining.

[7] = test system: NE; assay: NE activity in blood and bone marrow of mice; assay type: in vivo, C57BL/6 mice; settings: 30 mg/kg daily gavage, 7 days
Protocol: as §3

[8] = test system: PR3; assay: PR3 activity in blood and bone marrow of mice; assay type: in vivo, C57BL/6 mice; settings: 30 mg/kg daily gavage, 7 days
Protocol: as §3

[9] = test system: Cat G; assay: Cat G activity in blood and bone marrow of mice; assay type: in vivo, C57BL/6 mice; settings: 30 mg/kg daily gavage, 7 days
Protocol: as §3

[10] = test system: AIA model; assay: Adjuvant-induced arthritis (AIA) model, disease severity; assay type: in vivo, Sprague-Dawley rats; settings: rat AIA
Protocol: (§4) Thirty 4-week-old male Sprague-Dawley rats (weighing 120–130 g) were randomly divided into 6 groups (5 rats per group) after 1 week of adaptive feeding, namely the normal group, model group, low-dose experimental group (15 mg/kg), medium-dose experimental group (30 mg/kg), high-dose experimental group (60 mg/kg), and positive control group (30 mg/kg). Starting from Day 0 of the experiment, rats in the administration groups and model group were injected intradermally with 0.1 mL of CFA into the left hind paw to induce AIA, while rats in the normal group were injected intradermally with an equal volume (0.1 mL) of normal saline as a control. After 13 consecutive days of feeding, rats treated with CFA successfully developed typical AIA symptoms. […] During the experiment, the body weight, mental state, activity ability, hair color changes, and paw appearance changes of the rats were observed and recorded daily. In addition, on Day 0 of the experiment (baseline period), the basic paw volume of all rats was accurately measured using a plethysmometer, which served as a reference standard for subsequent evaluation of inflammation severity. From Day 13 to Day 28 of the experiment, the paw volume of the rats was measured repeatedly every 3 days. The degree of paw swelling was quantified by calculating the change in paw volume relative to the baseline. Meanwhile, the arthritis index score was calculated based on the range of paw redness and swelling, the severity of swelling, and the degree of limb movement limitation, so as to comprehensively evaluate the inflammatory state. On Day 28 of the experiment (the end of the administration cycle), blood samples were collected via abdominal aortic puncture. The blood samples were centrifuged at 3000 rpm for 20 min, and the upper serum was collected and stored at −20 °C for subsequent detection. The rats were then sacrificed, and their ankle joint tissues were harvested for subsequent pathological section observation and analysis. The cytokine levels in serum were measured. The activity detection of CTSC and NSPs was carried out according to the above methods.

[11] = target: T2, CTSC (Rattus norvegicus, UniProt P80067); assay: AIA model, serum CTSC activity; assay type: in vivo, Sprague-Dawley rats; settings: 30 mg/kg gavage, 15 days
T2 construct: from tissue; host or cells: serum of Sprague-Dawley rats (AIA model)
T2 sequence (P80067 25-462): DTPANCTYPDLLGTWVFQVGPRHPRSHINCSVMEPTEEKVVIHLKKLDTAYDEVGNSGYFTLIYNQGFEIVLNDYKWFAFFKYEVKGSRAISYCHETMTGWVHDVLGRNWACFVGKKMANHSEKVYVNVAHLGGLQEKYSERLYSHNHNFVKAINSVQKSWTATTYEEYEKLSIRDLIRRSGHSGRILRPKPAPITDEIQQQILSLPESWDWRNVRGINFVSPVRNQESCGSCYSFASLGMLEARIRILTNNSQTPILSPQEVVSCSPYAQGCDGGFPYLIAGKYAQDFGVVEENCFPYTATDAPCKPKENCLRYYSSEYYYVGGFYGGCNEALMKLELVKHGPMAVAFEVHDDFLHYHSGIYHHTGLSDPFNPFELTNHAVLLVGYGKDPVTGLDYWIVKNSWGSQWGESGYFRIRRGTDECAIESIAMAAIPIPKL
Protocol: as §4, with “Meanwhile, the arthritis index score was calculated based on the range of paw redness and swelling, the severity of swelling, and the degree of limb movement limitation, so as to comprehensively evaluate the inflammatory state. On Day 28 of the experiment (the end of the administration cycle), blood samples were collected via abdominal aortic puncture. The blood samples were centrifuged at 3000 rpm for 20 min, and the upper serum was collected and stored at −20 °C for subsequent detection. The rats were then sacrificed, and their ankle joint tissues were harvested for subsequent pathological section observation and analysis.” left out, “The activity detection of CTSC and NSPs was carried out according to the above methods.” left out

[12] = test system: NE; assay: AIA model, serum NE activity; assay type: in vivo, Sprague-Dawley rats; settings: rat AIA, 30 mg/kg gavage, 15 days
Protocol: as §4, with “Meanwhile, the arthritis index score was calculated based on the range of paw redness and swelling, the severity of swelling, and the degree of limb movement limitation, so as to comprehensively evaluate the inflammatory state. On Day 28 of the experiment (the end of the administration cycle), blood samples were collected via abdominal aortic puncture. The blood samples were centrifuged at 3000 rpm for 20 min, and the upper serum was collected and stored at −20 °C for subsequent detection. The rats were then sacrificed, and their ankle joint tissues were harvested for subsequent pathological section observation and analysis.” left out, “The activity detection of CTSC and NSPs was carried out according to the above methods.” left out

[13] = test system: PR3; assay: AIA model, serum PR3 activity; assay type: in vivo, Sprague-Dawley rats; settings: rat AIA, 30 mg/kg gavage, 15 days
Protocol: as §4, with “Meanwhile, the arthritis index score was calculated based on the range of paw redness and swelling, the severity of swelling, and the degree of limb movement limitation, so as to comprehensively evaluate the inflammatory state. On Day 28 of the experiment (the end of the administration cycle), blood samples were collected via abdominal aortic puncture. The blood samples were centrifuged at 3000 rpm for 20 min, and the upper serum was collected and stored at −20 °C for subsequent detection. The rats were then sacrificed, and their ankle joint tissues were harvested for subsequent pathological section observation and analysis.” left out, “The activity detection of CTSC and NSPs was carried out according to the above methods.” left out

[14] = test system: Cat G; assay: AIA model, serum Cat G activity; assay type: in vivo, Sprague-Dawley rats; settings: rat AIA, 30 mg/kg gavage, 15 days
Protocol: as §4, with “Meanwhile, the arthritis index score was calculated based on the range of paw redness and swelling, the severity of swelling, and the degree of limb movement limitation, so as to comprehensively evaluate the inflammatory state. On Day 28 of the experiment (the end of the administration cycle), blood samples were collected via abdominal aortic puncture. The blood samples were centrifuged at 3000 rpm for 20 min, and the upper serum was collected and stored at −20 °C for subsequent detection. The rats were then sacrificed, and their ankle joint tissues were harvested for subsequent pathological section observation and analysis.” left out, “The activity detection of CTSC and NSPs was carried out according to the above methods.” left out

[15] = target: T3, CTSC (Homo sapiens, UniProt P53634); assay: CTSC activity in U937 cells after 5 days of treatment; assay type: cell-based; parameters: endogenous in cells; host or cells: U937; settings: U937, 5 days, marrubiin and AZD7986 at the same concentration
Protocol: as §2
Target sequence in this assay (P53634 25-463): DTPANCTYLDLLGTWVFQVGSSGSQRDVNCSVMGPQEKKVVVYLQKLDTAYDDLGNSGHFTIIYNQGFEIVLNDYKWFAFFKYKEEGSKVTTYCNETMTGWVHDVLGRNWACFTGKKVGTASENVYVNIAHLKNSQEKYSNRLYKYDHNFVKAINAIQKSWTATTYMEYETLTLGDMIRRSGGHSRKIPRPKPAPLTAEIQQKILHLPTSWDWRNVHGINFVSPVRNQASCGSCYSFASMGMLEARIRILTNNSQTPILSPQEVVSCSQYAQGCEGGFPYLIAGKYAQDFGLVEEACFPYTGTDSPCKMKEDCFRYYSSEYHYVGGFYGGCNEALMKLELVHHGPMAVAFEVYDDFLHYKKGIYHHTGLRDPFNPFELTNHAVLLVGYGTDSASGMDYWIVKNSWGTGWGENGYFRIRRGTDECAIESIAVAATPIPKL

[16] = target: T4, intracellular CTSC (Homo sapiens, UniProt P53634); assay: CTSC cell-based assay using the U937 cell line; settings: read-out: Cell-Based Enz (IC50: nM)
T4 construct: endogenous in cells; host or cells: U937
T4 sequence (P53634 25-463): as above
Protocol: Cell-based CTSC enzymatic activity assays were performed in 96-well clear-bottom black microplates. […] The detection substrate, H-Gly-Arg-AFC, was diluted to 100 µM in serum-free medium and stored for later use. U937 cells in the logarithmic growth phase were harvested, washed with PBS, and counted. A single-cell suspension was prepared at a density of 1.0 × 10^6 cells/mL using serum-free medium. 30 µL of cell suspension was seeded into each well of the 96-well plate. To the test wells, 10 µL of the compound working solution was added, while 10 µL of serum-free medium was added to the control wells. The plate was pre-incubated in a cell culture incubator at 37 °C for 3 h. Subsequently, 10 µL of H-Gly-Arg-AFC was added to initiate the enzymatic reaction, and the plate was further incubated at 37 °C for 1 h. Fluorescence measurements were performed using a multimode microplate reader at excitation/emission wavelengths of 400/505 nm. Each group of tests was independently repeated at least 3 times, and IC50 values were calculated using SPSS 10.0.

[17] = target: T3, CTSC; assay: Human recombinant CTSC isolated enzyme assay; assay type: biochemical; parameters: purchased R&D Systems
Protocol: Both recombinant CTSL and CTSC for in vitro cell-free-based enzymatic activity assay can be purchased from R&D Systems (Minneapolis, MN, USA), a biotechnology company. According to the standardized procedures and material ratios provided by R&D Systems, prepare the activation solution (25 mM MES + 5 mM DTT, pH 6.0) and the assay solution (25 mM MES + 50 mM NaCl + 5 mM DTT, pH 6.0) in advance for later use. Dilute the detection substrate H-Gly-Arg-AMC to a 200 µM solution with the assay solution for standby. Prepare the working solution of compounds to be tested using the assay solution, with the concentration of working solution being 10 times the final test concentration. Dilute CTSC and CTSL, respectively, with cold activation solution. Thoroughly mix the two activation solutions containing the proteins to achieve final concentrations of 300 nM for CTSL and 440 nM for CTSC. After co-incubation for 1 h, the activated CTSC treated with CTSL can be used for the enzymatic activity inhibition efficacy test of compounds. Dilute the activated CTSC to 4.4 nM with cold assay buffer. Incubate 4 μL of the activated CTSC with 1 μL of the compound working solution (test group) or 1 μL of blank assay solution (control group) at room temperature for 3 h. Then, add 5 μL of the detection substrate to achieve a final concentration of 100 μM. Mix 5 µL each of the assay solution and the substrate solution as the blank group. After 1 h, the absorbance of detection substrate was measured using a multifunctional microplate reader at excitation/emission wavelengths of 380 nm/460 nm. The inhibitory efficacy of molecules on enzyme activity was calculated based on the absorbance difference between test group and control group. […] Each group of tests mentioned above was independently repeated at least 3 times, and IC50 values were calculated using SPSS 10.0.
Target sequence in this assay (P53634 25-134 limits assumed): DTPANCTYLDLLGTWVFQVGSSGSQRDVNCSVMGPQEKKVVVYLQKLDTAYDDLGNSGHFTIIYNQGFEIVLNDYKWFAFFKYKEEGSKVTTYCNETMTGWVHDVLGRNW
Target sequence in this assay (P53634 231-394 limits assumed): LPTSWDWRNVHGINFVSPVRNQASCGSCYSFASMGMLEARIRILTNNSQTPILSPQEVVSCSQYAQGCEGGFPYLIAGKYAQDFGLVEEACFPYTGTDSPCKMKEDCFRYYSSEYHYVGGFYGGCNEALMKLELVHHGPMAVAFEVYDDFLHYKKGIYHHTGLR
Target sequence in this assay (P53634 395-463 limits assumed): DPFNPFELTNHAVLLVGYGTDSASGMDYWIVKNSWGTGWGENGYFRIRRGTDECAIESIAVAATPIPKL

Cn1c(=O)oc2ccc(-c3ccc(C[C@@H](C#N)NC(=O)[C@@H]4CNCCCO4)cc3)cc21 [AZD7986, reference compound]
IC50 at 24 h [1]: > 10 µM | IC50 at 24 h [2]: > 10 µM | NE activity, % of DMSO group [3]: 5.1% | PR3 activity, % of DMSO group [4]: 8.1% | Cat G activity, % of DMSO group [5]: 12.7% | remaining activity rate of CTSC ([6]; blood): ~18.3% | remaining activity rate of CTSC ([6]; bone marrow): approximately 10.6% | remaining activity rate of NE ([7]; blood): ~8.1% | remaining activity rate of NE ([7]; bone marrow): ~11.7% | remaining activity rate of PR3 ([8]; blood): ~10.3% | remaining activity rate of PR3 ([8]; bone marrow): ~15.8% | remaining activity rate of Cat G ([9]; blood): ~35.2% | remaining activity rate of Cat G ([9]; bone marrow): ~30.5% | histopathology of ankle joints (H&E, Safranin O/Fast Green) ([10]; 30 mg/kg): reduced the histopathological statement | clinical score vs AIA model group ([10]; 30 mg/kg gavage, from day 16 onwards): significantly lower than those of AIA model group | volume and thickness of inflamed paws ([10]; 30 mg/kg, days 16 to 28): continuous reduction in volume and a gradual decrease in thickness | body weight recovery ([10]; 30 mg/kg, from day 16 onwards): most significant weight recovery effects | serum CTSC activity, % of control group [11]: approximately 35% | serum NE activity, % of control group [12]: ~30% | serum PR3 activity, % of control group [13]: ~40% | serum Cat G activity, % of control group [14]: approximately 58% | residual CTSC activity [15]: less than 8%

CC(=O)OCC1=CO[C@@H](OC(=O)CC(C)C)[C@H]2C1=C[C@H](OC(=O)CC(C)(C)OC(C)=O)[C@]21CO1 [Acevaltrate, acevaltrate]
IC50 [16]: 702.1 ± 3.2 nM | IC50 at 24 h [1]: > 10 µM | IC50 at 24 h [2]: > 10 µM | IC50 ([17]; human recombinant CTSC, cell-free, 12-point dose-response, read-out: CTSC Enz (IC50: nM)): 1053 ± 2.2 nM

N[C@@H]1CON=C1O [D-cycloserine]
enzymatic inhibitory activity against CTSC ([17]; result in words): no enzymatic inhibitory activity at all
